These results are taken from PMC5689459 (European journal of medicinal chemistry, 2010).

Assay [1] addresses T1, δ-opioid receptor (Homo sapiens, UniProt P41143). Conditions: read-out: Receptor affinity Kiδ; cited from earlier work.
The target in assay [2] is T1, δ-opioid receptor. Nature of the assay: Radioligand competition binding, displacement of [3H]DPDPE. In general terms: In a radioligand displacement assay an active substance lowers the binding of a labelled ligand.
Assay [3] deals with T2, μ-opioid receptor (Homo sapiens, UniProt P35372). Nature of the assay: Radioligand competition binding, displacement of [3H]DAMGO. As to conditions: for Selectivity Kiδ/Kiμ: ratio of δ and μ binding Ki.
In another assay the target is κ-opioid receptor (Homo sapiens, UniProt P41145). Nature of the assay: Radioligand competition binding, displacement of [3H]U69,593.
The target in another assay is δ-opioid receptors (MVD) (Mus musculus, UniProt P32300). Nature of the assay: MVD in vitro tissue bioassay. The format is biochemical.
The target of another assay is μ-opioid receptors (GPI). Nature of the assay: GPI/LMMP in vitro tissue bioassay. The format is biochemical, guinea pig. Conditions: read-out: Bioassay GPI (IC50); ± S.E.M.
In assay [4] the target is T2, μ-opioid receptor. Conditions: ratio of δ and μ binding Ki; cited from earlier work.

One may read the IC50 as the concentration at which inhibition is half-maximal.

Read-outs that look alike come from different tables or passages of the source. Where a SMILES comes first, the peptide text is derived from it. [ ]: non-standard residue; d: D form. d(β3hP) = O=C(O)C[C@H]1CCCN1; β3hP = O=C(O)C[C@@H]1CCCN1

Consider “Tyr–Pro–Phe–Pro–NH2 (YPFP) [Morphyceptin]”, for which, in the assay with δ-opioid receptor [1], the Ki is over 10000 nM.

Take `NC(=O)[C@@H]1CCCN1C(=O)[C@H](Cc1ccccc1)NC(=O)C[C@@H]1CCCN1C(=O)[C@@H](N)Cc1ccc(O)cc1` [Compound 7a, H–Tyr–(S)-HPro–Phe–Pro–NH2] (H-Y[β3hP]FP-NH2): the Ki on δ-opioid receptor [2] is over 10000 nM; on μ-opioid receptor [3] it was 6100 ± 553 nM; at κ-opioid receptor, 4400 ± 356 nM. Moreover, the “Bioassay MVD, % at 1 μM” value at δ-opioid receptors (MVD) was 33.7% at 1 μM. Also, the IC50 on μ-opioid receptors (GPI) was 1100 ± 115 nM.

In the case of `NC(=O)[C@H](Cc1ccccc1)NC(=O)[C@H](Cc1ccccc1)NC(=O)C[C@@H]1CCCN1C(=O)[C@@H](N)Cc1ccc(O)cc1` [Compound 6a, H–Tyr–(S)-HPro–Phe–Phe–NH2], the Ki amounted to 58 ± 5 nM on μ-opioid receptor [3] and 990 ± 12 nM at κ-opioid receptor.

As to Tyr–Pro–Phe–Pro–NH2 [Morphyceptin], the “Selectivity Kiδ/Kiμ” value on μ-opioid receptor [4] is over 74.1.

Consider `NC(=O)[C@H](Cc1ccccc1)NC(=O)[C@H](Cc1ccccc1)NS(=O)(=O)C[C@@H]1CCCN1C(=O)[C@@H](N)Cc1ccc(O)cc1` [Compound 6c, H–Tyr–(S)-HPrs–Phe–Phe–NH2], for which the Ki on μ-opioid receptor [3] is 100 ± 8 nM; on κ-opioid receptor, 4800 ± 367 nM.

On to `NC(=O)[C@H](Cc1ccccc1)NC(=O)[C@H](Cc1ccccc1)NC(=O)C[C@H]1CCCN1C(=O)[C@@H](N)Cc1ccc(O)cc1` [Compound 6b, H–Tyr–(R)-HPro–Phe–Phe–NH2], for which the Ki at δ-opioid receptor [2] was over 10000 nM; at μ-opioid receptor [3], 293 ± 27 nM; at κ-opioid receptor it was 10000 ± 1200 nM. Further, the “Selectivity Kiδ/Kiμ” value at μ-opioid receptor [3] is over 34.

As to `NC(=O)[C@@H]1CCCN1C(=O)[C@H](Cc1ccccc1)NC(=O)C[C@H]1CCCN1C(=O)[C@@H](N)Cc1ccc(O)cc1` [Compound 7b, H–Tyr–(R)-HPro–Phe–Pro–NH2] (H-Y[d(β3hP)]FP-NH2), the Ki at δ-opioid receptor [2] is over 10000 nM; on μ-opioid receptor [3], 30 ± 4 nM; on κ-opioid receptor it was 10000 ± 982 nM. For the same compound, the “Selectivity Kiδ/Kiμ” value on μ-opioid receptor [3] is given as over 333. Moreover, at μ-opioid receptors (GPI), the IC50 amounted to 17 ± 3 nM.
